Columns and labels:
mice = assay type: in vivo, mice (Swiss Webster)
[1] = cited from earlier work
[2] = DZP quantification in plasma and brain by LC/MS; assay type: in vivo, mice; details: TPPU 3 mg/kg i.p., DZP 10 mg/kg
murine sEH = details: read-out: IC50 for murine sEH; cited from earlier work
[3] = TPPU quantification in plasma and brain by LC/MS/MS; assay type: in vivo, mice
[4] = tested on: soluble epoxide hydrolase (sEH); details: mice treated with DZP 10 mg/kg and TPPU 3 mg/kg
[5] = 50 min after TPPU 3 mg/kg i.p. (5 min after DZP)
[6] = 105 min after TPPU 3 mg/kg i.p. (1 h after DZP)
[7] = midazolam 1.8 and 10 mg/kg intramuscular

CN1C(=O)CN=C(c2ccccc2)c2cc(Cl)ccc21 [DZP, diazepam]
Decrease of SBP from baseline (mice; DZP 1 mg/kg i.p.): 10–20%
Recovery time from hypotension (mice; DZP 1 mg/kg i.p.): 10 min
Hypotensive effect on BP, dose dependence (mice; DZP 1, 3, 10 mg/kg i.p.): led to hypotension in mice in a dose dependent manner
BP recovery at 24 h post treatment (mice; DZP 3 and 10 mg/kg i.p.): full recovery at 24 h post treatment
BP versus baseline at 5 and 6 h post DZP (mice; DZP 3 and 10 mg/kg i.p.): BP was still below baseline

CCC(=O)N1CCC(NC(=O)Nc2ccc(OC(F)(F)F)cc2)CC1 [TPPU]
Plasma elimination half-life ([1]; i.p. or oral administration): > 24 h
Effect of TPPU on sudden drop in BP 5 min after DZP (mice; TPPU 3 mg/kg i.p. before DZP 3 and 10 mg/kg): did not prevent the sudden drop in BP
Recovery from DZP hypotension with TPPU versus DZP alone (mice; TPPU 3 mg/kg i.p. before DZP, P < 0.001): recovered significantly faster from hypotension
Efficacy of TPPU against hypotension at lowest DZP dose (mice; TPPU 3 mg/kg i.p., DZP 1 mg/kg): least effective
AUC of BP-time course, DZP plus TPPU versus DZP alone (mice; TPPU 3 mg/kg i.p., P < 0.05): significantly higher
Change in BP by TPPU alone or with DZP vehicle (without DZP) (mice; TPPU 3 mg/kg i.p., P = 0.56): did not elicit any significant changes
Efficacy of TPPU against midazolam induced hypotension (mice; TPPU 3 mg/kg i.p., midazolam 1.8 and 10 mg/kg, P = 0.004 at […]): effective only when administered with the low dose of midazolam
[TPPU] Brain [3, 5]: 32.8 ± 3.4 µM
[TPPU] Plasma [3, 5]: 11.8 ± 0.6 µM
[TPPU] Brain [3, 6]: 27.8 ± 2 µM
[TPPU] Plasma [3, 6]: 10 ± 0.3 µM
Increase of plasma EETs and EpOMEs [4]: 2–3 fold

Cc1ncc2n1-c1ccc(Cl)cc1C(c1ccccc1F)=NC2 [midazolam]
Hypotensive effect on BP (mice; [7]): significant hypotension at both doses
Time of recovery from hypotension after administration (mice; [7]): 1 to 2 h

From article PMC5328659 (Journal of clinical toxicology, 2016)
